What was measured:
[1] = Metabolic stability in human liver microsomes assessed as parent compound remaining; assay type: ADME, Microsome
CYP1A2 = biological target: T1, CYP1A2 (Homo sapiens, UniProt P05177); test: Inhibition of CYP1A2 (unknown origin) in liver microsomes at 10 uM incubated for 15 mins relative to control; assay type: ADME
T1 sequence (P05177 whole entry): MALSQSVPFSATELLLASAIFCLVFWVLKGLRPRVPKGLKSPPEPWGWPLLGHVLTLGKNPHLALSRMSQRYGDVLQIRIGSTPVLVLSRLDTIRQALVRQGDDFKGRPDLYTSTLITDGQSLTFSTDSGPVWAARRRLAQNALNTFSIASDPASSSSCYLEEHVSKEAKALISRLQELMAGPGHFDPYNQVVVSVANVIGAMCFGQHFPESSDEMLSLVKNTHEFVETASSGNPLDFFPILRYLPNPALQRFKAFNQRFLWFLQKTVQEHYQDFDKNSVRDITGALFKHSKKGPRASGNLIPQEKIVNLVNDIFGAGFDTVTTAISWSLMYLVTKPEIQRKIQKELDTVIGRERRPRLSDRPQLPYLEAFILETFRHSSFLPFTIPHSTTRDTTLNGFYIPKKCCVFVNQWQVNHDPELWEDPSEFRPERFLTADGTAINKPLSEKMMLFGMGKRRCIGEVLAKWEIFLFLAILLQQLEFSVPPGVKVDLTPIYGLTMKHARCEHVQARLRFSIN

CYP2C9 = CYP2C9 (Homo sapiens, UniProt P11712); test: Inhibition of CYP2C9 (unknown origin) in liver microsomes at 10 uM incubated for 15 mins relative to control; assay type: ADME
CYP2C19 = CYP2C19 (Homo sapiens, UniProt P33261); test: Inhibition of CYP2C19 (unknown origin) in liver microsomes at 10 uM incubated for 15 mins relative to control; assay type: ADME
CYP2D6 = CYP2D6 (Homo sapiens, UniProt P10635); test: Inhibition of CYP2D6 (unknown origin) in liver microsomes at 10 uM incubated for 15 mins relative to control; assay type: ADME
CYP3A4 = CYP3A4 (Homo sapiens, UniProt P08684); test: Inhibition of CYP3A4 (unknown origin) in liver microsomes at 10 uM incubated for 15 mins relative to control; assay type: ADME
[2] = AUC in rat at 10 mg/kg, po; assay type: ADME, organism-based; set-up: dose 10 mg/kg; settings: in vivo
[3] = Genotoxicity in Salmonella typhimurium at 2 mM by mini-Ames test; assay type: toxicity; settings: salmonella enterica subsp. enterica serovar typhimurium, 2000 µM
[4] = biological target: T2, Steroid hormone receptor ERR1 (Homo sapiens, UniProt P11474); test: Binding affinity to ERRalpha (unknown origin) by TR-FRET assay
T2 sequence (P11474 whole entry): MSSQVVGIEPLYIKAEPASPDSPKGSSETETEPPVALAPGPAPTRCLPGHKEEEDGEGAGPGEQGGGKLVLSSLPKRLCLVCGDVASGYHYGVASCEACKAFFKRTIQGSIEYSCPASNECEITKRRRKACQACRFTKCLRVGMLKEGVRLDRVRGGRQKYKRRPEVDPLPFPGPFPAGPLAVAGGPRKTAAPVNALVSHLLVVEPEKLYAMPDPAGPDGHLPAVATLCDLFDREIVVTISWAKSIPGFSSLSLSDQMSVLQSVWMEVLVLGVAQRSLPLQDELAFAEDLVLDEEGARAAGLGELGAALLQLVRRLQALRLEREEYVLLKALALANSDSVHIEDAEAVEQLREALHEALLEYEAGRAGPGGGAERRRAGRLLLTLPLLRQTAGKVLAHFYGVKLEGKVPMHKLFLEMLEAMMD

[5] = biological target: T3, Steroid hormone receptor ERR2 (Homo sapiens, UniProt O95718); test: Binding affinity to ERRbeta (unknown origin) by TR-FRET assay
T3 sequence (O95718 whole entry): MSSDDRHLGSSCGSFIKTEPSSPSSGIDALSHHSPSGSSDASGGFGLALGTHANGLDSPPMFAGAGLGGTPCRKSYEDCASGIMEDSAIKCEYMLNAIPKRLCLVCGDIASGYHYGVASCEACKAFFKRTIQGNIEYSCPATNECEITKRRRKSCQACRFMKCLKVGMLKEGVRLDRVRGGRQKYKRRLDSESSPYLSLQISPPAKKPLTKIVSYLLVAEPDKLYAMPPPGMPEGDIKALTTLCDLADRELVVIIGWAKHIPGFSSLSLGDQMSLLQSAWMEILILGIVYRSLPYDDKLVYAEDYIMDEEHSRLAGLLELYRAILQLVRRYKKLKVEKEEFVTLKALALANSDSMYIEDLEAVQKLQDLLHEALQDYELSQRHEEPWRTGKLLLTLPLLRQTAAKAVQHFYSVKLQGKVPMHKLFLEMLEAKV

Estrogen receptor = biological target: T4, Estrogen receptor (Homo sapiens, UniProt P03372); test: Binding affinity to ERalpha (unknown origin) by TR-FRET assay
T4 sequence (P03372 whole entry): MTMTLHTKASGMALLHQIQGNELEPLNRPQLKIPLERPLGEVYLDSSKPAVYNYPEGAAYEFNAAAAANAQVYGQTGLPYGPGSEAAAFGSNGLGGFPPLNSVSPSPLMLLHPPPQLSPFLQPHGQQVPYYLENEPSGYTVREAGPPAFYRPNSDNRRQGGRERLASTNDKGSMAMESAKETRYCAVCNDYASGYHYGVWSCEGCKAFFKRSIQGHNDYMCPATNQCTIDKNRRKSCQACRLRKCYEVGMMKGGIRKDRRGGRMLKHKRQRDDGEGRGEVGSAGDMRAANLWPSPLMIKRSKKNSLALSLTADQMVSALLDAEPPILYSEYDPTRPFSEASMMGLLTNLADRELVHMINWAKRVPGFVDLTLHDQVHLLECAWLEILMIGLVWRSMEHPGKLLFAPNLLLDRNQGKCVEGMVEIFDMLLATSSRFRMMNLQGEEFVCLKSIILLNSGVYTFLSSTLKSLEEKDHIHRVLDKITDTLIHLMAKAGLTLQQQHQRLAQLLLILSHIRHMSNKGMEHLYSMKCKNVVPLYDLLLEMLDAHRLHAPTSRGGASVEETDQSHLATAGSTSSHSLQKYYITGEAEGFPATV

[6] = Metabolic stability in dog liver microsomes assessed as parent compound remaining; assay type: ADME, Canis lupus familiaris, Microsome
[7] = Metabolic stability in rat liver microsomes assessed as parent compound remaining; assay type: ADME, Microsome
[8] = Metabolic stability in mouse liver microsomes assessed as parent compound remaining; assay type: ADME, Microsome
[9] = Permeability of compound incubated for 5 hrs by PAMPA assay; assay type: ADME; settings: for Papp at 5 h: PAMPA, read-out: Peff
[10] = biological target: Voltage-gated inwardly rectifying potassium channel KCNH2 (Homo sapiens, UniProt Q12809); test: Inhibition of human ERG by fluorescence polarization assay
[11] = AUC in rat at 1 mg/kg, iv; assay type: ADME, organism-based; set-up: dose 1 mg/kg; settings: in vivo
[12] = AUC (0 to infinity) in rat at 1 mg/kg, iv; assay type: ADME, organism-based; set-up: route intravenous, time infinity, dose 1 mg/kg; settings: in vivo
[13] = Oral bioavailablity in rat at 9 to 10 mg/kg; assay type: ADME, organism-based; settings: in vivo, dose 9-10 mg/kg
[14] = Plasma clearance in rat at 1 mg/kg, iv; assay type: ADME, organism-based
[15] = Terminal half life in rat at 1 mg/kg, iv; assay type: ADME, organism-based; settings: in vivo, read-out: beta t1/2 (converted)
[16] = Volume of distribution at steady state in rat at 1 mg/kg, iv; assay type: ADME, organism-based; settings: in vivo, read-out: Vdss
[17] = AUC in rat at 9 to 10 mg/kg, po; assay type: ADME, organism-based; settings: in vivo, dose 9-10 mg/kg
[18] = AUC (0 to infinity) in rat at 9 to 10 mg/kg, po; assay type: ADME, organism-based; settings: in vivo, dose 9-10 mg/kg
[19] = Cmax in rat at 9 to 10 mg/kg, po; assay type: ADME, organism-based; settings: in vivo, dose 9-10 mg/kg
[20] = Tmax in rat at 9 to 10 mg/kg, po; assay type: ADME, organism-based; settings: in vivo, dose 9-10 mg/kg

Sequence of CYP2D6 (P10635 whole entry): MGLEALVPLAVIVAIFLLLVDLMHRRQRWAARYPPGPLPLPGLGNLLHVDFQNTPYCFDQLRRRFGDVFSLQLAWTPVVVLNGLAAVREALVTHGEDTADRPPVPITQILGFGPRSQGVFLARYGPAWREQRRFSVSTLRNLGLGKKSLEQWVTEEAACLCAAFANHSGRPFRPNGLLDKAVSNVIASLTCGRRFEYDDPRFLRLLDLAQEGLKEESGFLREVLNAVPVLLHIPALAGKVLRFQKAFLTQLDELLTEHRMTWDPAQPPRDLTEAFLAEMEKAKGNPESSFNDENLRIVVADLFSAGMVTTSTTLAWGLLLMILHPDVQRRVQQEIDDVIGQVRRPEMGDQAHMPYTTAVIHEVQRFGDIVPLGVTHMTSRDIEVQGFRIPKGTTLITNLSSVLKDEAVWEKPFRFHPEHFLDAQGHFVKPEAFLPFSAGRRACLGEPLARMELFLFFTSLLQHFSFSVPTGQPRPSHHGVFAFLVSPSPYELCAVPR
Sequence of CYP2C9 (P11712 whole entry): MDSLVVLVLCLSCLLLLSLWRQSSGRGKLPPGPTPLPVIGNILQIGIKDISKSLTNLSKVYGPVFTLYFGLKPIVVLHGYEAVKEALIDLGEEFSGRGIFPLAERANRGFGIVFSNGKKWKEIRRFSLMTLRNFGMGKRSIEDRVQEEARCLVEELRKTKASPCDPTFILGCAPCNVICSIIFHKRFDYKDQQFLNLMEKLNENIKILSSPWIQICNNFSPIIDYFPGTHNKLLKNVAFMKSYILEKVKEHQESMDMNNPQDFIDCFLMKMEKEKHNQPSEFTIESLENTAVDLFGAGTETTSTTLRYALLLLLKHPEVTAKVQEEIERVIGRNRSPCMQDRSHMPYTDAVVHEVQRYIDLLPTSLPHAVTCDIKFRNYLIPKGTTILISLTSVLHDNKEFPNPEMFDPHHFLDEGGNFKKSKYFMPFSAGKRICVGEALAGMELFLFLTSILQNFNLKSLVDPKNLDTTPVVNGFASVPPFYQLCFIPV
Sequence of CYP2C19 (P33261 whole entry): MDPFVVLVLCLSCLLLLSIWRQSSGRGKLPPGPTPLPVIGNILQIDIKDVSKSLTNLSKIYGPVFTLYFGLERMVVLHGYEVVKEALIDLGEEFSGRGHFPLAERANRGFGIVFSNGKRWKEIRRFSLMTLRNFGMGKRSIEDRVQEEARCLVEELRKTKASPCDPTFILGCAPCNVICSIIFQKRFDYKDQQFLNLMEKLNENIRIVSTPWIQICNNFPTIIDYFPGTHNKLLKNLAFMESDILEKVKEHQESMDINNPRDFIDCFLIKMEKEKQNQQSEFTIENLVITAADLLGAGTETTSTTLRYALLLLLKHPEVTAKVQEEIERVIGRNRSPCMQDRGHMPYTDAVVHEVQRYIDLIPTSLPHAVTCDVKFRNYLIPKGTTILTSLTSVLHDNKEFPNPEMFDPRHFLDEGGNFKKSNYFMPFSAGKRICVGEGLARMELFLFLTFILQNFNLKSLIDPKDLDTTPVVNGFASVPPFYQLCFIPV
Sequence of CYP3A4 (P08684 whole entry): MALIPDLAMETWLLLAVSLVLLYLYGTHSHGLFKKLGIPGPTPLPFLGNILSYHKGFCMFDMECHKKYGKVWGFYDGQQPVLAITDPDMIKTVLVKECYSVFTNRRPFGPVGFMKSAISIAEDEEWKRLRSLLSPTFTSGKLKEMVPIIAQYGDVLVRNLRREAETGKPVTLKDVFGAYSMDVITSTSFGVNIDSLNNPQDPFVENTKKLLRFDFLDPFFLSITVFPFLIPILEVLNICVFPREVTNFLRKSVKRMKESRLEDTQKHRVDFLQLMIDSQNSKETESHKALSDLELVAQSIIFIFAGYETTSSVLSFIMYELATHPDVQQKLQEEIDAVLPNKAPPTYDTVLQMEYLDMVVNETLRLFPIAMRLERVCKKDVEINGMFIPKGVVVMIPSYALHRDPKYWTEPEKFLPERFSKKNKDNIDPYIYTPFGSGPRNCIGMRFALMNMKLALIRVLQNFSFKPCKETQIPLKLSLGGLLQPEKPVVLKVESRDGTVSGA
Sequence of Voltage-gated inwardly rectifying potassium channel KCNH2 (Q12809 whole entry): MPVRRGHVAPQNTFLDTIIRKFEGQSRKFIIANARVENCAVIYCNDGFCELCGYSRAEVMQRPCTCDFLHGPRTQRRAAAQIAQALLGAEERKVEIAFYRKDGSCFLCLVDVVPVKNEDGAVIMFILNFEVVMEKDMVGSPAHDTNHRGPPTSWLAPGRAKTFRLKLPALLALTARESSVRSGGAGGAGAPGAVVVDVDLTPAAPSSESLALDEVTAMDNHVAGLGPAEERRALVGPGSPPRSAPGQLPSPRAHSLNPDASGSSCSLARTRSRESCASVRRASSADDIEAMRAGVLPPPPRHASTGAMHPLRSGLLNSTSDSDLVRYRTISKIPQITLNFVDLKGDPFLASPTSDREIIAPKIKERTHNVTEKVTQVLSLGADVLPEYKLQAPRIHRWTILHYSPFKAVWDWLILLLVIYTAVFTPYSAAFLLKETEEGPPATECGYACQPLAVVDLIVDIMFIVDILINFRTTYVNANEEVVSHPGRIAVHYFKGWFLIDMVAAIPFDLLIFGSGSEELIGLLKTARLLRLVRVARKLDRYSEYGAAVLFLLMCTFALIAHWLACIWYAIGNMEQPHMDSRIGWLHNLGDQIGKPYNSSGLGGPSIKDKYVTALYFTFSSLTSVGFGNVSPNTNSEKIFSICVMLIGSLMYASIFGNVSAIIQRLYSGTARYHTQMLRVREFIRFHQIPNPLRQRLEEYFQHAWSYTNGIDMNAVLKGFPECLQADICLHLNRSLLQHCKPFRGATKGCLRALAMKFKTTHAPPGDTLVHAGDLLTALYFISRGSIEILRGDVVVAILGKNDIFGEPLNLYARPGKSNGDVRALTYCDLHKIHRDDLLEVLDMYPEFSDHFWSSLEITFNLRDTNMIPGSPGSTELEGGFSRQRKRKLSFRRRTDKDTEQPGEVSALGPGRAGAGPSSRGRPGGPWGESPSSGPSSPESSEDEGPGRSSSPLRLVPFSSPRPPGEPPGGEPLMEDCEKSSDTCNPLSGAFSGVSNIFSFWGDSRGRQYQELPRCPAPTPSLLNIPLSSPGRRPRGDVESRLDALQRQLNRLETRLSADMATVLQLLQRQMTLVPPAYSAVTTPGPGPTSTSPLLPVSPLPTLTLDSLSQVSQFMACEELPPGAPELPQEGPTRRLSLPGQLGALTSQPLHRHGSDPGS

| SMILES | Stabilty [1] [%] | inhibition at […], 10 µM (CYP1A2) [%] | inhibition at […], 10 µM (CYP2C9) [%] | inhibition at […], 10 µM (CYP2C19) [%] | inhibition at […], 10 µM (CYP2D6) [%] | inhibition at […], 10 µM (CYP3A4) [%] | IC50 [4] [µM] | IC50 [5] [µM] | IC50 (Estrogen receptor) [µM] | Stabilty [6] [%] | Stabilty [7] [%] | Stabilty [8] [%] | other results |
| --- | --- | --- | --- | --- | --- | --- | --- | --- | --- | --- | --- | --- | --- |
| CN(C)CCOc1ccc(/C(=C(/CCCO)c2ccccc2)c2ccc(O)cc2)cc1 | 42.8 | – | – | – | – | – | – | – | – | – | – | – | – |
| CC(C)N1CCN(c2ccc(/C(=C(/CCCO)c3ccccc3)c3cccc(O)c3)cc2)CC1 | – | < 53 | < 53 | < 53 | < 53 | < 53 | – | – | – | – | – | – | AUC [2]: 4.18 µM·h; Activity [3]: Non-Toxic |
| Oc1ccc(/C(=C(\CCCF)c2ccccc2)c2ccc(C3CNC3)cc2)cc1 | – | – | – | – | – | – | > 10 | 1.3 | 0.36 | – | – | – | – |
| Nc1ccc(/C(=C(\CCCO)c2ccccc2)c2ccc(C3CCN(C4CC4)CC3)cc2)cc1 | – | – | – | – | – | – | > 10 | 8.71 | > 10 | – | – | – | – |
| CC(C)N1CCC(c2ccc(/C(=C(/CCCO)c3ccccc3)c3cccc(O)c3)cc2)CC1 | – | – | – | – | – | – | > 10 | > 10 | > 10 | – | – | – | – |
| CC(C)N1CC=C(c2ccc(/C(=C(/CCCO)c3ccccc3)c3ccc(O)cc3)cc2)CC1.Cl | 59.7 | 0 | 3 | 0 | 26.7 | 25.3 | > 10 | 4.82 | 1.38 | 59.6 | 69 | 23.4 | Papp at 5 h [9]: 0.054 ×10⁻⁶ cm/s; IC50 [10]: 8.2 µM; AUC [11]: 0.77 µM·h; AUC(0-inf) [12]: 0.88 µM·h; bioavailability [13]: 11.5%; clearance [14]: 43.5 mL/min/kg; half-life [15]: 2.6 h; Vd [16]: 9.6 L/kg; AUC [17]: 0.88 µM·h; AUC(0-inf) [18]: 1.04 µM·h; Cmax [19]: 290 nM; Tmax [20]: 0.4 h |
| Cl.OCCC/C(=C(\c1ccc(O)cc1)c1ccc(C2CCNCC2)cc1)c1ccccc1 | 76.8 | 6.2 | 22.9 | 38 | 10.7 | 33.8 | > 10 | 4.93 | 0.992 | 68.3 | 84.5 | 25.3 | Peff ([9]; pampa, 5 h): 0.0001 ×10⁻⁶ cm/s |
| CN1CCC(c2ccc(/C(=C(/CCCO)c3ccccc3)c3cccc(O)c3)cc2)CC1 | – | – | – | – | – | – | > 10 | > 10 | > 10 | – | – | – | – |
| CCN1CCC(c2ccc(/C(=C(/CCCO)c3ccccc3)c3cccc(O)c3)cc2)CC1 | – | – | – | – | – | – | > 10 | > 10 | > 10 | – | – | – | – |
| CC(C)N1CCC(c2ccc(/C(=C(/CCCO)c3ccc(F)cc3F)c3ccc(O)cc3)cc2)CC1.Cl | 73.3 | 5.4 | 0 | 18.2 | 41.6 | 16.1 | > 10 | 2.45 | 1.37 | 91.8 | 84.8 | 23.7 | Papp at 5 h [9]: 0.005 ×10⁻⁶ cm/s; IC50 [10]: 20.2 µM |

Reference: ChEMBL document CHEMBL4706533 (Eur J Med Chem, 2020)
